# US20220287976A1, “AMMONIA AS A PROCESSING AID FOR SPRAYED SOLID DISPERSIONS” (Capsugel Belgium NV, priority 2019, published 2022)
# Assays:
# [1] = Concentration enhancement in methanol with ammonia; assay type: physicochemical; settings: for concentration in methanol in the presence of ammonia: methanol with about 1.07 molar equivalents of ammonia, completely dissolved; for time to dissolution after addition of ammonia: slurry in methanol, 2.14 M ammonia in methanol added with stirring; for solubility enhancement in methanol in the presence of ammonia: versus crystalline solubility in methanol without ammonia
# Protocol: A second mixture of sulfasalazine in methanol was prepared by stirring 656.0 mg of sulfasalazine (1.65 mmol) in 14.00 mL of methanol. To this slurry, 0.825 mL of 2.14 M ammonia (1.76 mmol) in methanol was added with stirring resulting in complete dissolution of sulfasalazine within 1 minute.
# A second mixture of piroxicam in methanol was prepared by stirring 661.8 mg of piroxicam (2.00 mmol) in 15.00 mL of methanol.
# [2] = Crystalline solubility in methanol (saturated solution, thermogravimetric analysis of supernatant); assay type: physicochemical; settings: organic solvent or mixture, thermodynamic from solid, no ammonia
# Protocol: A saturated solution of sulfasalazine (Spectrum Chemical) was prepared in methanol with excess crystalline sulfasalazine.
# A saturated solution of piroxicam (Spectrum Chemical) was prepared in methanol with excess crystalline piroxicam.
SMILES,concentration in methanol in the presence of ammonia [1],time to dissolution after addition of ammonia [1] [min],solubility enhancement in methanol in the presence of ammonia [1],solubility [2] [µg/mL]
CN1C(C(=O)Nc2ccccn2)=C(O)c2ccccc2S1(=O)=O [piroxicam],greater than 41 mg/mL,≤ 1,greater than 19 fold,~2100
O=C(O)c1cc(/N=N/c2ccc(S(=O)(=O)Nc3ccccn3)cc2)ccc1O [sulfasalazine],greater than 43 mg/mL,≤ 1,about 43 fold,~1000
